Laboratory results as given in PubChem BioAssay AID256 (DTP/NCI, 2004).
Toxic doses and inconclusive results are not listed. How the source made its calls: active means survival T/C of 150% or more; inactive means T/C below 125% in these data.

Tested on: CD2F1 mice, L1210 leukemia ip, survival T/C
Experiment: NCI In Vivo Anticancer Drug Screen. Data for tumor model L1210 Leukemia (intraperitoneal) in CD2F1 (CDF1) mice
Details: higher = longer survival
In short: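 Each value reflects a quotient of treated over vehicle control outcomes in mice with a transplanted tumor.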

[1] = endpoint: mean survival time, dose: 200.0 mg/kg/injection, schedule: Q01DX001 (ip), vehicle: saline with Tween-80
[2] = endpoint: mean survival time, dose: 400.0 mg/kg/injection, schedule: Q01DX001 (ip), vehicle: saline with Tween-80
[3] = endpoint: mean survival time, dose: 50.0 mg/kg/injection, schedule: Q01DX009 (ip), vehicle: saline with Tween-80
[4] = endpoint: mean survival time, dose: 100.0 mg/kg/injection, schedule: Q01DX009 (ip), vehicle: saline with Tween-80
[5] = endpoint: mean survival time, dose: 100.0 mg/kg/injection, schedule: Q04DX003 (ip), vehicle: saline with Tween-80
[6] = endpoint: mean survival time, dose: 200.0 mg/kg/injection, schedule: Q01DX009 (ip), vehicle: saline with Tween-80
[7] = endpoint: mean survival time, dose: 200.0 mg/kg/injection, schedule: Q04DX003 (ip), vehicle: saline with Tween-80
[8] = endpoint: mean survival time, dose: 400.0 mg/kg/injection, schedule: Q04DX003 (ip), vehicle: saline with Tween-80
[9] = endpoint: mean survival time, dose: 100.0 mg/kg/injection, schedule: Q01DX001 (ip), vehicle: saline with Tween-80

Measured: T/C

CC(=O)OCC1OC([Se][As](C)C)C(OC(C)=O)C(OC(C)=O)C1OC(C)=O (stereo not drawn)
inactive: endpoint: mean survival time, dose: 3.13 mg/kg/injection, schedule: Q01DX009 (ip), vehicle: saline with Tween-80 98 % of control | endpoint: mean survival time, dose: 6.25 mg/kg/injection, schedule: Q01DX001 (ip), vehicle: saline with Tween-80 95 % of control | endpoint: mean survival time, dose: 6.25 mg/kg/injection, schedule: Q01DX009 (ip), vehicle: saline with Tween-80 96 % of control | endpoint: mean survival time, dose: 12.5 mg/kg/injection, schedule: Q01DX001 (ip), vehicle: saline with Tween-80 97 % of control | endpoint: mean survival time, dose: 12.5 mg/kg/injection, schedule: Q01DX009 (ip), vehicle: saline with Tween-80 96 % of control

CCOC(=O)/C=C/C(=O)O.[Zn+2]
inactive: endpoint: mean survival time, dose: 3.12 mg/kg/injection, schedule: Q04DX003 (ip), vehicle: saline 100 % of control | endpoint: mean survival time, dose: 6.25 mg/kg/injection, schedule: Q04DX003 (ip), vehicle: saline 100 % of control | endpoint: mean survival time, dose: 12.5 mg/kg/injection, schedule: Q04DX003 (ip), vehicle: saline 100 % of control

[C-]#[O+].[Cl][Sn]([Cl])[Cl].[Cl][Sn]([Cl])[Cl].[Pt].c1ccc([PH+](c2ccccc2)c2ccccc2)cc1.c1ccc([PH+](c2ccccc2)c2ccccc2)cc1
inactive: endpoint: median survival time, dose: 3.12 mg/kg/injection, schedule: Q04DX003 (ip), vehicle: saline with Tween-80 108 % of control | endpoint: median survival time, dose: 6.25 mg/kg/injection, schedule: Q04DX003 (ip), vehicle: saline with Tween-80 106 % of control | endpoint: median survival time, dose: 12.5 mg/kg/injection, schedule: Q04DX003 (ip), vehicle: saline with Tween-80 110 % of control | endpoint: median survival time, dose: 25.0 mg/kg/injection, schedule: Q04DX003 (ip), vehicle: saline with Tween-80 113 % of control | endpoint: median survival time, dose: 50.0 mg/kg/injection, schedule: Q04DX003 (ip), vehicle: saline with Tween-80 110 % of control | endpoint: median survival time, dose: 100.0 mg/kg/injection, schedule: Q04DX003 (ip), vehicle: saline with Tween-80 112 % of control | endpoint: median survival time, dose: 200.0 mg/kg/injection, schedule: Q04DX003 (ip), vehicle: saline with Tween-80 108 % of control

N/C(=N/N=C/c1ccc(O)cc1)N[N+](=O)[O-]
inactive: endpoint: mean survival time, dose: 100.0 mg/kg/injection, schedule: Q04DX003 (ip), vehicle: Klucel (hydroxypropylcellulose) (HPC) 92 % of control | endpoint: mean survival time, dose: 200.0 mg/kg/injection, schedule: Q04DX003 (ip), vehicle: Klucel (hydroxypropylcellulose) (HPC) 86 % of control | endpoint: mean survival time, dose: 400.0 mg/kg/injection, schedule: Q04DX003 (ip), vehicle: Klucel (hydroxypropylcellulose) (HPC) 92 % of control

N=C(N)N(CCS)CC(=O)O
inactive: [1] 87 % of control | [2] 90 % of control

CNc1ccc(O)cc1
inactive: endpoint: mean survival time, dose: 5.0 mg/kg/injection, schedule: Q01DX009 (ip), vehicle: saline sonified 101 % of control | endpoint: mean survival time, dose: 5.0 mg/kg/injection, schedule: Q04DX003 (ip), vehicle: saline 91 % of control | endpoint: mean survival time, dose: 10.0 mg/kg/injection, schedule: Q01DX009 (ip), vehicle: saline sonified 103 % of control | endpoint: mean survival time, dose: 10.0 mg/kg/injection, schedule: Q04DX003 (ip), vehicle: saline 97 % of control | endpoint: mean survival time, dose: 20.0 mg/kg/injection, schedule: Q01DX009 (ip), vehicle: saline sonified 104 % of control | endpoint: mean survival time, dose: 20.0 mg/kg/injection, schedule: Q04DX003 (ip), vehicle: saline 101 % of control

Cc1ccc(S(=O)(=O)Nc2ccc(I)cc2)cc1
inactive: [3] 94 % of control | [4] 97 % of control | [5] 92 % of control | [6] 95 % of control | [7] 94 % of control | [8] 86 % of control

CC(=O)O.CC(=O)O.[Co].[NH2-].[NH2-].[NH2-].[NH2-]
inactive: endpoint: mean survival time, dose: 6.25 mg/kg/injection, schedule: Q04DX002 (ip), vehicle: saline with Tween-80 93 % of control | endpoint: mean survival time, dose: 12.5 mg/kg/injection, schedule: Q04DX002 (ip), vehicle: saline with Tween-80 87 % of control

CC(=O)OC1CS(=O)(=O)CC1Br (stereo not drawn)
inactive: [9] 103 % of control | [1] 98 % of control | [2] 98 % of control

Cc1cn(C2CC(O)C(CO)O2)c(=O)nc1N1CCCC1 (stereo not drawn)
inactive: endpoint: median survival time, dose: 12.5 mg/kg/injection, schedule: Q01DX005 (ip), vehicle: water 103 % of control | endpoint: median survival time, dose: 25.0 mg/kg/injection, schedule: Q01DX005 (ip), vehicle: water 108 % of control | endpoint: median survival time, dose: 50.0 mg/kg/injection, schedule: Q01DX005 (ip), vehicle: water 102 % of control | endpoint: median survival time, dose: 100.0 mg/kg/injection, schedule: Q01DX005 (ip), vehicle: water 101 % of control | endpoint: median survival time, dose: 200.0 mg/kg/injection, schedule: Q01DX005 (ip), vehicle: water 102 % of control

O=[N+]([O-])c1ccc(OCc2ccccc2)nc1
inactive: [9] 86 % of control | [1] 100 % of control | [2] 93 % of control

NC(=O)c1ccc(Cl)c(Cl)c1
inactive: [4] 103 % of control | [6] 103 % of control

O=S(=O)(Nc1ccc(NS(=O)(=O)c2ccccc2)c(N2CCOCC2)c1)c1ccccc1
inactive: [9] 101 % of control | [1] 101 % of control | [2] 92 % of control

CC(=O)OCC1(OC2OC(CNC(=O)N(C)N=O)C(OC(C)=O)C(OC(C)=O)C2OC(C)=O)OC(CNC(=O)N(C)N=O)C(OC(C)=O)C1OC(C)=O (stereo not drawn)
inactive: endpoint: mean survival time, dose: 12.5 mg/kg/injection, schedule: Q01DX009 (ip), vehicle: other 102 % of control | endpoint: mean survival time, dose: 25.0 mg/kg/injection, schedule: Q01DX009 (ip), vehicle: other 102 % of control | endpoint: mean survival time, dose: 50.0 mg/kg/injection, schedule: Q01DX009 (ip), vehicle: other 109 % of control | endpoint: mean survival time, dose: 100.0 mg/kg/injection, schedule: Q01DX009 (ip), vehicle: other 105 % of control | endpoint: mean survival time, dose: 200.0 mg/kg/injection, schedule: Q01DX009 (ip), vehicle: other 119 % of control

O=C1c2ccccc2C(=O)N1Cc1ccc([N+](=O)[O-])cc1Cl
inactive: [3] 87 % of control | [4] 98 % of control | [6] 94 % of control

Cc1cc(C)c(C(=O)CCCC(=O)O)c(C)c1
inactive: [5] 94 % of control | [7] 92 % of control

Clc1n[nH]c(Cl)n1
inactive: endpoint: mean survival time, dose: 25.0 mg/kg/injection, schedule: Q01DX009 (ip), vehicle: saline with Tween-80 97 % of control | [3] 100 % of control | [4] 89 % of control | [5] 86 % of control

Cc1cc2c(=O)cc(-c3ccccc3)oc2c(C(=O)O)c1C
inactive: endpoint: median survival time, dose: 31.75 mg/kg/injection, schedule: Q01DX005 (ip), vehicle: saline with Tween-80 109 % of control | endpoint: median survival time, dose: 62.5 mg/kg/injection, schedule: Q01DX005 (ip), vehicle: saline with Tween-80 106 % of control | endpoint: median survival time, dose: 125.0 mg/kg/injection, schedule: Q01DX005 (ip), vehicle: saline with Tween-80 104 % of control | endpoint: median survival time, dose: 250.0 mg/kg/injection, schedule: Q01DX005 (ip), vehicle: saline with Tween-80 102 % of control

CC1CN1CC(O)C(O)CN1CC1C (stereo not drawn)
inactive: endpoint: mean survival time, dose: 2.5 mg/kg/injection, schedule: Q01DX009 (ip), vehicle: saline 115 % of control

O=[N+]([O-])c1ccc(S(=O)(=O)O)cc1
inactive: endpoint: mean survival time, dose: 100.0 mg/kg/injection, schedule: Q01DX001 (ip), vehicle: saline 95 % of control | endpoint: mean survival time, dose: 200.0 mg/kg/injection, schedule: Q01DX001 (ip), vehicle: saline 105 % of control | endpoint: mean survival time, dose: 400.0 mg/kg/injection, schedule: Q01DX001 (ip), vehicle: saline 100 % of control

O=C(O)c1c(Cl)c(Cl)c(Cl)c(Cl)c1C(=O)O
inactive: endpoint: mean survival time, dose: 100.0 mg/kg/injection, schedule: Q04DX002 (ip), vehicle: saline with Tween-80 97 % of control | endpoint: mean survival time, dose: 200.0 mg/kg/injection, schedule: Q04DX002 (ip), vehicle: saline with Tween-80 101 % of control | endpoint: mean survival time, dose: 400.0 mg/kg/injection, schedule: Q04DX002 (ip), vehicle: saline with Tween-80 105 % of control

CCCCCCCCc1ccc(O)c(Cl)c1
inactive: [5] 94 % of control | [7] 91 % of control | [8] 94 % of control
